Experimental data published in publication PMC11505650, “Chemical and Biological Characterization of Metabolites from Silene viridiflora Using Mass Spectrometric and Cell-Based Assays” (Biomolecules, 2024).

Legend:
[1] = test system: HEK293 cells; assay: MTT cytotoxicity assay, HEK293 embryonic kidney cells, 72 h; type: cell-based, human; conditions: MTT test, 72 h exposure
[2] = test system: BT-20 cells; assay: MTT cytotoxicity assay, BT-20 cells, 72 h; type: cell-based, human; conditions: MTT test, 72 h exposure
Procedure: (§1) The cytotoxic activity of the samples was screened against the human triple-negative breast cancer BT-20 (HTB-19), HCC1395 (ATCC®CRL-2324), MDA-MB-231 (CRM-HTB-26), and HEK293 (CRL-1573) embryonic kidney cell lines. The cells were cultured in Dulbecco’s modified eagle medium (DMEM) supplemented with 4.5 g/L glutamine and D-glucose, 10% fetal bovine serum (FBS), and a 1% penicillin/streptomycin mixture and incubated at 37 °C under a 5% CO2 humidified atmosphere. Cell passage and seeding performed after washing the adherent cells with PBS and detaching them using a Trypsin solution. The cells were detached and resuspended at 160,000 cells/mL and added into each well of a transparent 384-well plate in the final volume of 25 µL/well (4000 cells per well). The cells were maintained in DMEM containing 10% FBS at 37°C and 5% CO2 overnight. The next day, the 384-well plate was examined under an inverted microscope to identify cell seeding errors, growth characteristics, morphology and equal distribution. Then, the medium in each well was removed using a washer–dispenser (Biotek FX, Beersel, Belgium) and replaced by 40 μL of the fresh medium containing the indicated concentrations of compounds and incubated for 72 h.
(§2) The 250 µg/mL concentrations of methanol extract and 20 mM concentrations of individual compounds were prepared as a stock solution in DMSO (Sigma-Aldrich Chemie GmbH, Taufkirchen, Germany) prior to use. A complete medium was used to prepare this solution. The samples were further serially diluted in DMSO into eleven different concentrations and then added to the complete cell culture medium so as to attain the final concentrations ranging from 250 to 8.6 µg/mL (250, 178.6, 127.6, 91.1, 65.1, 46.5, 33.2, 23.7, 16.9, 12.1, and 8.6 µg/mL) for the extract and 20 to 1.45 µM (20, 15.4, 11.8, 9.1, 7.0, 5.4, 4.1, 3.2, 2.5, 1.9, and 1.5 µM) for the individual compounds in 384-well plates, which were added in four replicates. A 40 µL sample containing medium from each concentration was dispensed into each well. The concentration of the solvent, DMSO, was equal in all the wells and was fixed at 0.05% in the medium. As a negative control, cells were treated with DMEM containing DMSO. Docetaxel (concentration of 0.02 µM to 6.9 nM) is used as a positive control.
(§3) The cytotoxicity of the samples was determined in triplicate using the 3-(4,5-dimethylthiazol-2-yl)-2,5-diphenyltetrazolium bromide (MTT) cell viability assay. The next day, the medium of the 384-well plates treated with samples was removed. Then, 25 µL of MTT solution (0.5 mg MTT in 1 mL PBS) was added to each well and incubated at 37 °C for 2 h. After incubation with MTT for 2 h, the solution was removed from the wells by the washer–dispenser, and the formed formazan crystals were then dissolved in 25 µL of DMSO. After a further 10 min of incubation at room temperature, the samples were mixed briefly, and the absorbance was detected at 510 nm with a Tecan Infinite 200 Pro Reader (Tecan Group Ltd., Männedorf, Switzerland). The cell viability rate (%) was calculated by the following formula:Cell viability rate (%) = ((OD of treated cells − OD of media (blank)/(OD of control cells − OD of media (blank)) × 100%
(§4) The experiments were carried out in four replicates. Continuous variables were presented as the mean ± SD. […] The level of significance was set at p < 0.05. The IC50 (inhibitory concentration which caused 50% inhibition) was estimated using the linear regression method of plots of the percent of cell viability against the concentration of the tested compounds using GraphPad Prism 8.0.1 software (San Diego, CA, USA).

[3] = test system: HCC1395 cells; assay: MTT cytotoxicity assay, HCC1395 cells, 72 h; type: cell-based, human; conditions: MTT test, 72 h exposure
Procedure: as §1, §2, §3, §4

[4] = test system: MDA-MB-231 cells; assay: MTT cytotoxicity assay, MDA-MB-231 cells, 72 h; type: cell-based, human; conditions: MTT test, 72 h exposure
Procedure: as §1, §2, §3, §4

[5] = test system: Wnt signaling; assay: TOPFlash assay (Wnt3a-stimulated BT-20 reporter cells); type: cell-based, human; conditions: BT-20 cells, 20 µM (extract 20 μg/mL)
Procedure: The TOPFlash assay was performed as described. TNBC BT-20 cell line stably transfected with TopFlash reporter plasmid was seeded at 450,000 cells/mL in a white opaque 384-well plate in the final volume of 25 μL. The cells were maintained and incubated at 37 °C with 5% CO2 overnight for attachment. Subsequently, they were transfected by a plasmid encoding Renilla luciferase under the CMV promoter using 12 μg/mL of DNA and 40 μL/mL XtremeGENE 9 reagent as described in the manufacturer’s protocol. The next day, the medium in each well was replaced with a 20 μL fresh medium containing Wnt3a (2.5 μg/mL) and compound dilution. Compound dilutions were prepared by serial dilution in DMSO and diluted with the amount of medium necessary to obtain their final concentrations indicated on the figures and tables and maintain a concentration of DMSO of 0.05% in all assay points. Wnt3a was added after 1 h of preincubation with compound dilution. After overnight incubation, the supernatant in each well was removed by the washer–dispenser, and the luciferase activity was measured as described. […] Next, the luciferase activity of the firefly and Renilla luciferases was detected sequentially in individual wells of a 384-well plate through the injection of corresponding measurement solutions in Tecan Infinite 200 Pro multifunctional plate reader with an injection module.

[6] = test system: MCF-7, MDA-MB-231, and MDA-MB-468 cells; design: method as in PMID 33192507; conditions: breast cancer cells; cited from earlier work
[7] = Homo sapiens, HEK293, average ± SEM, N = 3
[8] = Homo sapiens, BT-20, average ± SEM, N = 3
[9] = Homo sapiens, HCC1395, average ± SEM, N = 3
[10] = Homo sapiens, MDA-MB-231, average ± SEM, N = 3

Row | Compound | IC50 [1, 7] [µM] | IC50 [2, 8] [µM] | IC50 [3, 9] [µM] | IC50 [4, 10] [µM] | also measured
1 | C[C@@H]1C(=O)O[C@H](C)[C@H]1C[C@@H](O)[C@](C)(O)[C@H]1CC[C@@]2(O)C3=CC(=O)[C@@H]4C[C@@H](O)[C@@H](O)C[C@]4(C)[C@H]3CC[C@]12C [Compound 76, Cyasterone] | > 20 | > 20 | > 20 | > 20 | –
2 | CC(C)(O)CC[C@@H](O)[C@](C)(O)[C@H]1CC[C@@]2(O)C3=CC(=O)[C@@H]4C[C@@H](O)CC[C@]4(C)[C@H]3CC[C@]12C [Compound 58, 2-Deoxy-20-hydroxyecdysone] | 0.27 ± 0.01 | 0.12 ± 0.006 | 0.21 ± 0.01 | 0.53 ± 0.14 | Inhibition of Wnt signaling [5]: not a Wnt signaling inhibitor
3 | C[C@H]([C@H](O)CCC(C)(C)O)[C@H]1CC[C@@]2(O)C3=CC(=O)[C@@H]4C[C@@H](O)CC[C@]4(C)[C@H]3CC[C@]12C [Compound 72, 2-Deoxyecdysone] | > 20 | > 20 | > 20 | > 20 | –
4 | CC1(C)CC[C@]2(C(=O)O)CC[C@]3(C)C(=CC[C@@H]4[C@@]5(C)CC[C@H](O)C(C)(C)[C@@H]5CC[C@]43C)[C@@H]2C1 [Compound 71, Oleanolic acid] | > 20 | > 20 | > 20 | > 20 | –
5 | C[C@H]([C@H](O)CCC(C)(C)O)[C@H]1CC[C@@]2(O)C3=CC(=O)[C@@H]4C[C@@H](O)[C@@H](O)C[C@]4(C)[C@H]3CC[C@]12C [Compound 73, Ecdysone] | > 20 | > 20 | > 20 | > 20 | –
6 | O=c1cc(-c2ccc(O)cc2)oc2cc(O[C@@H]3O[C@H](CO)[C@@H](O)[C@H](O)[C@H]3O)c([C@@H]3O[C@H](CO)[C@@H](O)[C@H](O)[C@H]3O)c(O)c12 [Compound 38, Saponarin (isovitexin 7-O-β-D-glucoside)] | – | – | – | – | IC50 ([1]; average ± SEM, N = 3): > 20 µM; IC50 ([2]; average ± SEM, N = 3): > 20 µM; IC50 ([3]; average ± SEM, N = 3): > 20 µM; IC50 ([4]; average ± SEM, N = 3): > 20 µM
7 | O=C(O)[C@]1(O)C[C@@H](O)[C@@H](O)[C@H](O)C1 [Compound 12, Quinic acid] | > 20 | > 20 | > 20 | > 20 | –
8 | C[C@@H]1O[C@@H](OC[C@H]2O[C@@H](Oc3c(-c4ccc(O)c(O)c4)oc4cc(O)cc(O)c4c3=O)[C@H](O)[C@@H](O)[C@@H]2O)[C@H](O)[C@H](O)[C@H]1O [Compound 41, Rutin (quercetin-3-O-rutinoside)] | > 20 | > 20 | > 20 | > 20 | –
9 | CC(C)(O)CC[C@@H](O)[C@](C)(O)[C@H]1CC[C@@]2(O)C3=CC(=O)[C@@H]4C[C@@H](O)[C@@H](O)C[C@]4(C)[C@H]3CC[C@]12C [Compound 50, 20-Hydroxyecdysone] | > 20 | > 20 | > 20 | > 20 | Concentration range in which autophagy induction / synergistic effect with doxorubicin was observed [6]: 250 to 750 µM
10 | CC(=O)O[C@@]12CO[C@@H]1C[C@H](O)[C@@]1(C)C(=O)[C@H](O)C3=C(C)[C@@H](OC(=O)[C@H](O)[C@@H](NC(=O)OC(C)(C)C)c4ccccc4)C[C@@](O)([C@@H](OC(=O)c4ccccc4)[C@H]21)C3(C)C [Docetaxel, reference compound] | – | – | – | – | IC50 ([1]; Homo sapiens, HEK293, positive control): 0.00447 ± 1.3e-06 µM; IC50 ([2]; Homo sapiens, BT-20, positive control): 0.0044 ± 8e-07 µM; IC50 ([3]; Homo sapiens, HCC1395, positive control): 0.0065 ± 7e-07 µM; IC50 ([4]; Homo sapiens, MDA-MB-231, positive control): 0.0177 ± 2.9e-06 µM
11 | CC(C)(O)CC[C@@H](O)[C@](C)(O)[C@H]1CC[C@@]2(O)C3=CC(=O)[C@@H]4C[C@@H](O)[C@@H](O)C[C@]4(C)[C@H]3[C@H](O)C[C@]12C [Compound 75, Turkesterone] | > 20 | > 20 | > 20 | > 20 | –
12 | O=c1cc(-c2ccc(O)cc2)oc2c([C@@H]3OC[C@H](O)[C@H](O)[C@H]3O)c(O)c([C@@H]3O[C@H](CO)[C@@H](O)[C@H](O)[C@H]3O)c(O)c12 [Compound 29, Schaftoside (apigenin 6-C-β-D -glucoside-8-C-α-L-arabinoside)] | > 20 | > 20 | > 20 | > 20 | –
13 | CC(=O)OC(C)(C)CC[C@@H](O)[C@](C)(O)[C@H]1CC[C@@]2(O)C3=CC(=O)[C@@H]4C[C@@H](O)[C@@H](O)C[C@]4(C)[C@H]3CC[C@]12C [Compound 74, Viticosterone E] | > 20 | > 20 | > 20 | > 20 | –
14 | COc1cc(/C=C/C(=O)O)ccc1O [Compound 19, Ferulic acid] | – | – | – | – | IC50 ([1]; average ± SEM, N = 3): > 20 µM; IC50 ([2]; average ± SEM, N = 3): > 20 µM; IC50 ([3]; average ± SEM, N = 3): > 20 µM; IC50 ([4]; average ± SEM, N = 3): > 20 µM
15 | O=C(O)C=Cc1ccc(O)cc1 [Compound 21, p-Coumaric acid] | > 20 | > 20 | > 20 | > 20 | –
